Measured values published in ChEMBL document CHEMBL2062522, “Halogenated spirotetronates from Actinoallomurus” (J Nat Prod, 2012).
Converted amounts (≈) assume the structure as drawn. The source made the active and inactive calls. The calls are words filed in the database; no cut-off is given here.

Columns and labels:
[1] = system: Streptococcus pneumoniae; assay: Antibacterial activity against Streptococcus pneumoniae BAA1402 expressing MefE efflux pump by broth microdilution method; assay type: functional
[2] = system: Streptococcus pyogenes; assay: Antibacterial activity against Streptococcus pyogenes isolate L49 by broth microdilution method; assay type: functional
[3] = system: Staphylococcus haemolyticus; assay: Antibacterial activity against methicillin-resistant Staphylococcus haemolyticus isolate L1729 by broth microdilution method; assay type: functional
[4] = system: Enterococcus faecium; assay: Antibacterial activity against vancomycin-resistant Enterococcus faecium isolate L569 by broth microdilution method; assay type: functional
[5] = system: Staphylococcus aureus; assay: Antibacterial activity against methicillin-resistant Staphylococcus aureus isolate L1400 by broth microdilution method; assay type: functional
[6] = system: Candida albicans; assay: Antifungal activity against Candida albicans; assay type: functional, organism-based
[7] = system: Enterococcus faecalis; assay: Antibacterial activity against vancomycin-sensitive Enterococcus faecalis isolate L559 by broth microdilution method; assay type: functional
[8] = system: Staphylococcus aureus; assay: Antibacterial activity against glycopeptide-intermediate,methicillin-resistant Staphylococcus aureus isolate L3797 by broth microdilution method; assay type: functional
[9] = cells; details: Homo sapiens, HMEC-1, 72 h
Description: Cytotoxicity against human HMEC1 cells after 72 hrs by MTT assay

[10] = system: Staphylococcus aureus; assay: Antibacterial activity against methicillin-sensitive Staphylococcus aureus ATCC 29213 by broth microdilution method; assay type: functional
[11] = system: Enterococcus faecium; assay: Antibacterial activity against vancomycin-sensitive Enterococcus faecium isolate L568 by broth microdilution method; assay type: functional
[12] = system: Staphylococcus haemolyticus; assay: Antibacterial activity against methicillin-sensitive Staphylococcus haemolyticus isolate L1730 by broth microdilution method; assay type: functional
[13] = system: Staphylococcus aureus; assay: Antibacterial activity against methicillin-sensitive Staphylococcus aureus ATCC 25923 by broth microdilution method; assay type: functional
[14] = system: Enterococcus faecalis; assay: Antibacterial activity against vancomycin-resistant Enterococcus faecalis isolate L560 by broth microdilution method; assay type: functional
[15] = system: Staphylococcus aureus; assay: Antibacterial activity against glycopeptide-intermediate Staphylococcus aureus isolate L3798 by broth microdilution method; assay type: functional
[16] = system: Streptococcus pneumoniae; assay: Antibacterial activity against penicillin-sensitive Streptococcus pneumoniae isolate L44 by broth microdilution method
[17] = system: Staphylococcus aureus; assay: Antibacterial activity against methicillin-sensitive Staphylococcus aureus ATCC 6538P by broth microdilution method; assay type: functional
[18] = Cytotoxicity against mouse BMDM cells after 72 hrs by MTT assay; assay type: cell-based

| Structure (SMILES) | MIC [1] [µg/mL] | MIC [2] [µg/mL] | MIC [3] [µg/mL] | MIC [4] [µg/mL] | MIC [5] [µg/mL] | Activity [6] | MIC [7] [µg/mL] | MIC [8] [µg/mL] | IC50 [9] [µM] | MIC [10] [µg/mL] | MIC [11] [µg/mL] | MIC [12] [µg/mL] | MIC [13] [µg/mL] | MIC [14] [µg/mL] | MIC [15] [µg/mL] | MIC [16] [µg/mL] | MIC [17] [µg/mL] | IC50 [18] [µM] |
| --- | --- | --- | --- | --- | --- | --- | --- | --- | --- | --- | --- | --- | --- | --- | --- | --- | --- | --- |
| CC[C@H]1C[C@@]23OC(=O)C(=C2O)C(=O)[C@]2(CC)[C@@H](C=C[C@@H]4[C@@H](O[C@H]5C[C@@H](O)[C@H](NC(=O)c6[nH]c(Cl)cc6Cl)[C@@H](C)O5)[C@@H](C)CC[C@@H]42)CCCC/C=C/[C@@]3(C)C=C1C(=O)O | 64 (≈ 75.8 µM) | 2 (≈ 2.37 µM) | 1 (≈ 1.19 µM) | 4 (≈ 4.74 µM) | 1 (≈ 1.19 µM) | inactive | 0.5 (≈ 0.593 µM) | 0.5 (≈ 0.593 µM) | 9 | 0.25 (≈ 0.296 µM) | 8 (≈ 9.48 µM) | 1 (≈ 1.19 µM) | 0.5 (≈ 0.593 µM) | 0.5 (≈ 0.593 µM) | 1 (≈ 1.19 µM) | 4 (≈ 4.74 µM) | 0.5 (≈ 0.593 µM) | 50 |
| CC[C@H]1C[C@@]23OC(=O)C(=C2O)C(=O)[C@]2(CC)[C@@H](C=C[C@@H]4[C@@H](O[C@H]5C[C@@H](O)[C@H](NC(=O)c6[nH]cc(Br)c6Br)[C@@H](C)O5)[C@@H](C)CC[C@@H]42)CCCC/C=C/[C@@]3(C)C=C1C(=O)O | – | 1 (≈ 1.07 µM) | – | 32 (≈ 34.3 µM) | 16 (≈ 17.2 µM) | – | 32 (≈ 34.3 µM) | – | 3 | 8 (≈ 8.58 µM) | 32 (≈ 34.3 µM) | – | – | 16 (≈ 17.2 µM) | – | 8 (≈ 8.58 µM) | – | 109 |
| CC[C@H]1C[C@@]23OC(=O)C(=C2O)C(=O)[C@]2(CC)[C@@H](C=C[C@@H]4[C@@H](O[C@H]5C[C@@H](O)[C@H](NC(=O)c6[nH]c(Cl)c(Cl)c6Cl)[C@@H](C)O5)[C@@H](C)CC[C@@H]42)CCCC/C=C/[C@@]3(C)C=C1C(=O)O | > 128 | 8 (≈ 9.11 µM) | 4 (≈ 4.55 µM) | 8 (≈ 9.11 µM) | 4 (≈ 4.55 µM) | – | 2 (≈ 2.28 µM) | 4 (≈ 4.55 µM) | 2 | 2 (≈ 2.28 µM) | 16 (≈ 18.2 µM) | 4 (≈ 4.55 µM) | 2 (≈ 2.28 µM) | 2 (≈ 2.28 µM) | 4 (≈ 4.55 µM) | 8 (≈ 9.11 µM) | 2 (≈ 2.28 µM) | 47 |
| CC[C@H]1C[C@@]23OC(=O)C(=C2O)C(=O)[C@]2(CC)[C@@H](C=C[C@@H]4[C@@H](O[C@H]5C[C@@H](O)[C@H](NC(=O)c6[nH]ccc6Br)[C@@H](C)O5)[C@@H](C)CC[C@@H]42)CCCC/C=C/[C@@]3(C)C=C1C(=O)O | – | 4 (≈ 4.68 µM) | – | 64 (≈ 75 µM) | 4 (≈ 4.68 µM) | – | 16 (≈ 18.7 µM) | – | 43 | 2 (≈ 2.34 µM) | 64 (≈ 75 µM) | – | – | 16 (≈ 18.7 µM) | – | 8 (≈ 9.37 µM) | – | 143 |
| COc1cccc2c1C(=O)c1c(O)c3c(c(O)c1C2=O)C[C@@](O)(C(=O)CO)C[C@@H]3O[C@H]1C[C@H](N)[C@H](O)[C@H](C)O1 [DOXORUBICIN] | – | – | – | – | – | – | – | – | 0.06 | – | – | – | – | – | – | – | – | 4.6 |
| CN[C@H](CC(C)C)C(=O)N[C@H]1C(=O)N[C@@H](CC(N)=O)C(=O)N[C@H]2C(=O)N[C@H]3C(=O)N[C@H](C(=O)N[C@H](C(=O)O)c4cc(O)cc(O)c4-c4cc3ccc4O)[C@H](O)c3ccc(c(Cl)c3)Oc3cc2cc(c3O[C@@H]2O[C@H](CO)[C@@H](O)[C@H](O)[C@H]2O[C@H]2C[C@](C)(N)[C@H](O)[C@H](C)O2)Oc2ccc(cc2Cl)[C@H]1O [VANCOMYCIN] | 4 (≈ 2.76 µM) | 1 (≈ 0.69 µM) | 2 (≈ 1.38 µM) | > 128 | – | – | 1 (≈ 0.69 µM) | > 128 | – | – | – | 1 (≈ 0.69 µM) | – | > 128 | 8 (≈ 5.52 µM) | 0.5 (≈ 0.345 µM) | – | – |
